The source of these data is patent US6953788B1, “3-mercaptoacetylamino-1,5-substituted-2-oxo-azepan derivatives useful as inhibitors of matrix metalloproteinase” (Aventis Pharmaceuticals Inc., priority 1996, dated 2005).

Experiment [1] concerns the target T1, MMP-3 (Stromelysin-1) (Homo sapiens, UniProt P08254).
T1 construct: The active MMP-3 was obtained by treatment of proMMP-3 with trypsin; endogenous in cells; host or cells: human rheumatoid synovial fibroblasts stimulated with macrophage-conditioned medium (secreted into the culture medium)
Kind of experiment: Determination of inhibition constant (Ki) for MMP-3, fluorogenic substrate. The class given is biochemical. Conditions: activated MMP-3, 37° C., pH 7.6. As for the experimental part: Aliquots of the activated MMP-3 were stored at −20° C.
The activated MMP-3 is assayed using a fluorogenic substrate, Mca-Pro-Leu-Gly-Leu-Dpa-Ala-Arg-NH2, Knight, C. […] The increase in fluorescence due to cleavage of Gly-Leu peptide bond by MMP-3 was monitored with Perkin-Elmer LS50B Fluorimeter (λex328 nm, λem393 nm, excitation slit 2.5, emission slit 10). Substrate and inhibitor stock solutions were made in DMF and 0.1% HCl-DMF, respectively. […] The enzyme (10 μL of 0.2 μM MMP-3 dilution in assay buffer) was added at the last to start the reaction. […] Under these conditions, the measured Ki,app is close to true Ki.
(§1) The Ki for a competitive inhibitor is calculated using: v0/vi=(1+[I]/Ki,app) and Ki=Ki,app/(1+[S]/KM), where v0 is the initial rate in the absence of inhibitor, vi is the initial rate in the presence of inhibitor at the concentration of [I], [S] is the substrate concentration, and Km is the Michaelis constant. If slow binding is observed (i.e. if the approach to the binding equilibrium is slow), the final steady-state rate rather than the initial rate is taken as vi.

Experiment [2] has as its target T2, MMP-12 (macrophage metalloelastase) (Homo sapiens, UniProt P39900).
T2 construct: made in house
The experiment is described as follows: Determination of inhibition constant (Ki) for MMP-12, fluorogenic substrate. The experiment is classed as biochemical. Conditions: 25C., pH 7.6. As for the experimental part: as §1

T1 sequence (P08254 100-477): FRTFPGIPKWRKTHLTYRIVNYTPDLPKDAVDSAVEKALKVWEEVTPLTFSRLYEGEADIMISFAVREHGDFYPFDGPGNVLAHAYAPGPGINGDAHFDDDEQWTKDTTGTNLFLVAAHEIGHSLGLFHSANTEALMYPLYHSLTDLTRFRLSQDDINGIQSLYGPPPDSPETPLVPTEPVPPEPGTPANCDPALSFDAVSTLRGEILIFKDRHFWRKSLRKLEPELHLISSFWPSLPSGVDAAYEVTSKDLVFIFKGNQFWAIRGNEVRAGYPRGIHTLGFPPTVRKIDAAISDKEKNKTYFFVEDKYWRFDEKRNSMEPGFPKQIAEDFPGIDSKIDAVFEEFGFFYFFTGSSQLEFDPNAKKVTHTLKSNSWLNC
T2 sequence (P39900 106-263 limits assumed): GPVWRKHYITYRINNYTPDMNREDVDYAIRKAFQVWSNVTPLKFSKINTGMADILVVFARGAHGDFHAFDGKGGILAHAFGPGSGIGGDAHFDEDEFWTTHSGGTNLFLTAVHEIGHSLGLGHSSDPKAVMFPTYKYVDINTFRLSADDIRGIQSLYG

In experiment [1], `CNC(=O)[C@H](Cc1ccccc1)N1CCN(Cc2ccccc2)C[C@H](NC(=O)[C@@H](S)CCCCN2C(=O)c3ccccc3C2=O)C1=O` (relative stereo) [IV-1, 2H-Isoindole-2-hexanamide, N-[hexahydro-4-[2-(methylamino)-2-oxo-1-(phenylmethyl)ethyl]-5-oxo-1-(phenylmethyl)-1H-1,4-diazepin-6-yl]-1,3-dihydro-α-mercapto-1,3-dioxo-, [6S-[4(R*), 6R*(R*)]]-] yielded a Ki of 210 nM. On to `CNC(=O)C(Cc1ccccc1)N1CCC(c2ccccc2)CC(NC(=O)C(S)CCCCN2C(=O)c3ccccc3C2=O)C1=O` (stereo not drawn) [III-1, 2H-Isoindole-2-hexanamide, N-[hexahydro-1-[2-(methylamino)-2-oxo-1-(phenylmethyl)ethyl]-2-oxo-5-phenyl-1H-azepin-3-yl]-1,3-dihydro-α-mercapto-1,3-dioxo-, [3S-[1(R*), 3α, 5β]]-], for which the Ki in experiment [1] came to 73 nM; in experiment [2] it was 53 nM.
